Series [1] is described as follows: Agonist activity at Pseudomonas aeruginosa pqsA delta frame deletion mutant.
In series [2] the target is T1, Transcriptional regulator MvfR (Pseudomonas aeruginosa PA14, UniProt A0A072ZLE6).
T1 sequence (A0A072ZLE6 whole entry): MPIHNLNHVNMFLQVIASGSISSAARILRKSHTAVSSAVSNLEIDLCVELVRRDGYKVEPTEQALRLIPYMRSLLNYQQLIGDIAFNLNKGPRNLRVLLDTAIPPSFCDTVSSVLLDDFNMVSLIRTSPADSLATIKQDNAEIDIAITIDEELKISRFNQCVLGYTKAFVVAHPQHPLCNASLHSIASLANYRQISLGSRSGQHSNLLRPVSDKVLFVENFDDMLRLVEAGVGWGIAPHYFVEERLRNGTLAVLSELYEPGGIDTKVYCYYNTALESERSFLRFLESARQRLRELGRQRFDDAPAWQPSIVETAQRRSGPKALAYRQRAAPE
Kind of series: Inhibition of Pseudomonas aeruginosa PqsR.

The target in series [3] is T2, 2-heptyl-4(1H)-quinolone synthase PqsD (Pseudomonas aeruginosa, UniProt A0A0C7ACN7).
T2 sequence (A0A0C7ACN7 whole entry): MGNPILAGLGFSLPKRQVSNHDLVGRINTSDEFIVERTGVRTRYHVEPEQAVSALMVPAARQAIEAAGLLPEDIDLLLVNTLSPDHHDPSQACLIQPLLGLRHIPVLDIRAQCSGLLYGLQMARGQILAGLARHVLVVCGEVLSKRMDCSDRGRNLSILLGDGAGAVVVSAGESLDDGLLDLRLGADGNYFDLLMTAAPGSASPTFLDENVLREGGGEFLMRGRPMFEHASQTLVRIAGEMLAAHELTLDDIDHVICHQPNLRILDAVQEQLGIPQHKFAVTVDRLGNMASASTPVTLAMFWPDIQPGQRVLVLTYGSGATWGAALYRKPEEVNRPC
Kind of series: Inhibition of Pseudomonas aeruginosa PqsD.

Series [4] addresses T1, Transcriptional regulator MvfR. Kind of series: Antagonist activity at His6 -tagged Pseudomonas aeruginosa PqsR CBD domain expressed in Escherichia coli Rosetta 2 (DE3).
The target of series [5] is T3, Transcriptional regulator MvfR (Pseudomonas aeruginosa PA14) (UniProt A0A072ZLE6).
T3 sequence (whole entry): T1 sequence (A0A072ZLE6 whole entry)
Kind of series: Inhibition of Pseudomonas aeruginosa PqsR relative to control. The note with it: concentration not given here.

Series [6] can be described thus: Binding affinity to Pseudomonas aeruginosa His6/Sumo-tagged PqsR C87 mutant expressed in Escherichia coli BL21 (DE3) […] cells by surface plasma resonance method.
The nature of series [7]: Antagonist activity at His6 -tagged Pseudomonas aeruginosa PqsR C87 mutant expressed in Escherichia coli BL21 (DE3) cells by surface plasma resonance method.
The nature of series [8]: Half life in rat hepatic microsomes at 1 uM in presence of NADPH by UPLC-MS/MS analysis. It counts as ADME, Microsome. The note with it: liver microsomes.
A short description of series [9]: Half life in human hepatic microsomes at 1 uM in presence of NADPH by UPLC-MS/MS analysis. It is filed as ADME, Microsome. The following applies: liver microsomes.

Consider 10 compounds from ChEMBL document CHEMBL4346692, “Anti-PqsR compounds as next-generation antibacterial agents against Pseudomonas aeruginosa: A review” (Eur J Med Chem, 2019).

Compound `CCCCCCCc1[nH]c2ccccc2c(=O)c1O` registered an EC50 in series [1] of 1.9 µM. As to `CS(=O)(=O)c1nccc(-n2cnnn2)n1`, the IC50 in series [2] was found to be 15 µM; in [3] it was 21 µM. The compound `CCCCCCCCCc1nc2cc(F)ccc2c(=O)n1N` registered an IC50 in [4] of 3.9 µM. `CCCCCCS(=O)(=O)c1nccc(-n2ccnn2)n1`: the figures for the IC50 in series [2] and in [3] were 50 µM and 1.7 µM, respectively. In [5], this compound had an inhibition of 47%.

In series [6], `CCCCCCCc1cc(=O)c2cc(C(F)(F)F)ccc2[nH]1` yielded a Kd of 0.057 µM. `CCCCCCCCCc1nc2cc(Cl)ccc2c(=O)n1N` displayed an IC50 in series [4] of 5 µM. `CCCCCCCCCc1nc2cc(F)ccc2c(=O)n1OC` came in with an EC50 in [1] of 2.2 µM. The compound `CC(C)(C)c1ccc(C(=O)NO)cc1` registered an IC50 in [7] of 23.6 µM. With `CCCCCCCCCc1nc2cc(F)c(F)cc2c(=O)n1N`, in series [4], it took 1.2 µM to reach half-maximal inhibition (IC50). For `O=CN1N=C(c2ccccc2)CC1c1cccc(Nc2ccnc3cc(Cl)ccc23)c1` (centres undefined), the half-life at 1 µM in [8] and in series [9] was under 30 min each time.
